Results as given in patent US20250041309A1 (ZHENAO JINYINHUA PHARMACEUTICAL, priority 2021, published 2025).
Where a name gives a salt, the structure may show the parent alone.

Key:
[1] = test system: MCAO rats; assay: Cerebral infarction range (TTC) in MCAO rats, oral administration (Example 23); assay type: in vivo, SD rats; details: gavage 8 mg/kg*2, after 14 days; for Improvement rate % of cerebral infarction range: versus model control group; for Total cerebral infarction %: x ± s, n = 20
Experimental: (§1) Administration route: gavage administration;
(§2) Dosage: 8 mg/kg body weight, twice a day;
(§3) Administration time: gavage administration twice a day in the morning and evening (administered immediately after modeling).
(§4) A rat model of middle cerebral artery ischemia/reperfusion (MCAO/R) was created using suture-occluded method.
(§5) The successfully modeled rats were randomly divided into 4 groups based on their scores, with an average of 20 rats in each group.
At the end of the experiment, the brain tissue of the rats was collected by bloodletting and frozen in a −20° C. freezer, and then is sliced into a thickness of 2 mm per slice. The brain tissue slices were placed in a 2% red tetrazolium (TTC) solution and incubated at 37° C. for 5 minutes. The infarcted tissue appeared white, while the non-infarcted tissue appeared red. Image J software was used to measure the area of cerebral infarction and the percentage of infarct area to the total brain area was calculated.

[2] = Physical and chemical properties of the experimental drugs (Example 23)
[3] = test system: MCAO rats; assay: Neurological function (behavioral) score in MCAO rats, oral administration (Example 23); assay type: in vivo, SD rats; details: gavage 8 mg/kg twice a day; after 3, 7 and 14 days administration
Experimental: as §1, §2, §3, §4
After 2 hours of embolization, then reperfusion, according to the scoring criteria in the attached table, the degree of neurological damage in the animals was scored using a blind method. Those with significant neurological deficits (>8 points) were considered successful in modeling.
as §5
Neurological function score: evaluation was conducted before treatment, 3 days, 7 days, and 14 days after treatment.

[4] = pH measurement of Aildenafil salts dissolved in water; assay type: physicochemical; details: for 2 mg/ml pH value: 2 mg/ml in water; for 10 mg/ml pH value: 10 mg/ml in water
[5] = Saturation solubility of Aildenafil salts in water at room temperature; assay type: physicochemical
[6] = test system: MCAO rats; assay: Balance beam test in MCAO rats, injection of Aildenafil phosphate (Example 24); assay type: in vivo; details: x ± sD, n = 7
Experimental: (§6) • ? Animal selection: healthy SD rats were used as experimental animals. In order to eliminate the impact of individual animal variations on the results, 10 rats were used in each group. […] After 2 hours of cerebral ischemia-reperfusion, the drug was immediately injected into the tail vein for consecutive 7 days.
(§7) On the day of the experiment, the rat was anesthetized with isoflurane gas and fixed in a supine position. The skin was cut along the midline of the neck to expose the right arteriae carotis communis. The nerves and fascia around the blood vessels from the common carotid artery bifurcation to the base of the skull were carefully removed, and the external and internal carotid arteries were separated sequentially. A MCAO suture (250-280 g) was inserted from the free end of the external carotid artery, and the nylon suture was introduced into the internal carotid artery from the distal end of the external carotid artery. It was inserted into the middle cerebral artery in the Willis ring to effectively block the middle cerebral artery. The length of the inserted suture was 18-20 mm away from the bifurcation of the common carotid artery. Then the free end of the external carotid artery was ligated along with intracavity suture to prevent bleeding. The subcutaneous fascia and skin were sutured layer by layer, and penicillin was locally added dropwise to prevent infection. The Sham group only isolated the internal carotid artery. 2 hours after the start of MCAO, the suture was carefully removed from the lumen of the internal carotid artery to allow for reperfusion of the internal carotid artery. Animals were kept in cages. • ? Y Grouping and administration
(§8) The rats successfully modeled with a neurological function score of 8-12 were randomly divided into four groups based on the score: model control group, low-dose 2.5 mg/kg group of test drug, medium dose 5 mg/kg group of test drug, and high-dose 10 mg/kg group of test drug, with 7 rats in each group. […] Immediately after cerebral ischemia-reperfusion for 2 hours, the drug was administered via tail vein injection for consecutive 7 days. The endpoint of the experiment is 14 days after the first administration. Please see Table 7 for details.
(§9) Balance beam and forelimb placement tests were performed after 7 and 14 days administration, respectively.

[7] = test system: MCAO rats; assay: Cerebral infarction range (TTC) in MCAO rats, injection of Aildenafil phosphate (Example 24); assay type: in vivo, SD rats; details: 14 days; for Improvement rate % of cerebral infarction range: versus model control group; for Infarct size (%): x ± sD, n = 7
Experimental: as §6, §7, §8
After 14 days of medication, rats were anesthetized with isoflurane gas to collect blood and euthanized by cervical vertebrae dislocation. The brain tissue was taken and placed in a −20° C. freezer for freezing, and was sliced from front to back, each slice has a thickness of 2 mm. Brain tissue slices were incubated in a 2% red tetrazolium (TTC) solution at 37° C. for 5 minutes. […] Image J software was used to measure the area of cerebral infarction and the percentage of infarct area to the total brain area was calculated.

[8] = Sterilization stability test of aqueous solutions (121° C., 30 minutes, HPLC relevant substances); details: 0.5 mg/ml aqueous solution; for Conclusion (sterilization stability) / Relevant substances after sterilization: sterilized at 121° C. for 30 minutes
Experimental: They were sterilized in a 121° C. sterilizer for 30 minutes, and sampled before and after sterilization. The relevant substances were measured according to the following method:
Relevant substances: taking the samples and dissolving it in the mobile phase to prepare a solution containing 0.5 mg per 1 ml, which was used as the test solution; using octadecylsilane bonded silica gel as the filler, phosphate buffer (800 ml of water, 7 ml of triethylamine added, pH adjusted to 3.0 with phosphoric acid, diluted to 1000 ml with water)-methanol acetonitrile (58:25:17) as the mobile phase, with a detection wavelength of 290 nm.

[9] = test system: MCAO rats; assay: Forelimb placement test in MCAO rats, injection of Aildenafil phosphate (Example 24); assay type: in vivo; details: x ± sD, n = 7
Experimental: as §6, §7, §8, §9

[10] = test system: ischemic stroke model rats; assay: Neurological function (behavioral) score, ischemic stroke model rats, intravenous administration (Example 22); assay type: in vivo, SD rats; design: scale not given here; details: 10 mg/kg iv qd 7 d, x ± s, n = 10
Source text: (§10) On the day of the experiment, the rat was anesthetized with isoflurane gas and placed in a supine position for fixation. The skin was cut along the midline of the neck to expose the right common carotid artery. The nerves and fascia around the blood vessels from the common carotid artery bifurcation to the base of the skull were carefully removed, and the external and internal carotid arteries were separated sequentially. The MCAO suture was inserted from the free end of the external carotid artery, and the nylon suture was introduced into the internal carotid artery from the distal end of the external carotid artery. It was inserted into the Willis ring of the middle cerebral artery to effectively block the middle cerebral artery. The length of the inserted suture was 18-20 mm away from the bifurcation of the common carotid artery. Then the free end of the external carotid artery was ligated along with the endovascular suture to prevent bleeding. […] Animals were kept in cages. After 2 hours of embolization, then reperfusion, according to the scoring criteria in the attached table, the degree of neurological damage in the animals was scored using a blind method. Those with significant neurological deficits (>8 points) were considered successful in modeling. • ? Grouping and administration The animals successfully modeled were randomly divided into three groups based on their scores, namely the model control group, compound 1 AD group ([…] citrate group) 10 mg/kg, and compound 2 XD group (Sildenafil citrate group) 10 mg/kg, with 10 animals in each group. […] The endpoint of the experiment was 14 days after administration, and the dosage is detailed in the table below. This experiment was administered intravenously with a dosage of 10 mg/kg and a volume of 5 mL/kg, once per day for consecutive 7 days. Score before treatment, 3 days after treatment, 7 days after treatment, and 14 days after treatment.

[11] = test system: ischemic stroke model rats; assay: Cerebral infarction range (TTC), ischemic stroke model rats, intravenous administration (Example 22); assay type: in vivo, SD rats; details: 10 mg/kg iv qd 7 d
Source text: as §10, with “cages.” for “cages. After 2 hours of embolization, then reperfusion, according to the scoring criteria in the attached table, the degree of neurological damage in the animals was scored using a blind method. Those with significant neurological deficits (>8 points) were considered successful in modeling. • ? Grouping and administration”, “At the end of the experiment, the brain tissue of the rats was collected by bloodletting” for “Score before treatment, 3 days after treatment, 7 days after treatment,”, “frozen in a -20° C. freezer, then are sliced with a thickness of 2 mm per slice. The brain tissue slices were placed in a 2% red tetrazolium (TTC) solution and incubated at 37° C. for 5 minutes. The infarcted tissue appeared white, while the non-infarcted tissue appeared red.” for “14 days after treatment.”

[12] = 5 mg/kg iv qd 7 d (medium dose)

CN1CC(=O)N2[C@H](c3ccc4c(c3)OCO4)c3[nH]c4ccccc4c3C[C@@H]2C1=O [Tadalafil]
Improvement rate % of cerebral infarction range [1]: 14.2% | Total cerebral infarction % [1]: 21.3 ± 6.5%

Yukinafil citrate
Improvement rate % of cerebral infarction range [1]: 13.1% | Total cerebral infarction % [1]: 21.2 ± 6.3% | solubility in DMF or DMSO (in words) ([2]; DMF or DMSO): soluble | solubility in water (in words) ([2]; water): soluble | behavioral scores compared with the model control group [3]: trend of improvement

CCCc1nn(C)c2c(=O)[nH]c(-c3cc(S(=O)(=O)N4C[C@@H](C)N[C@@H](C)C4)ccc3OCC)nc12 [Aildenafil D-tartrate]
2 mg/ml pH value ([4]; listed as D-tartrate): 3.84 | 10 mg/ml pH value ([4]; listed as D-tartrate): 3.58

CCCc1nn(C)c2c(=O)[nH]c(-c3cc(S(=O)(=O)N4C[C@@H](C)N[C@@H](C)C4)ccc3OCC)nc12 [Aildenafil phosphate]
time to dissolve to be clear in water by hand shaking [5]: 15 s | balance beam, 7 days after medication [6, 12]: 2.14 ± 0.9 min | balance beam, 14 days after medication [6, 12]: 4.29 ± 1.38 min | balance beam, 7 days after medication ([6]; 10 mg/kg iv qd 7 d (high dose)): 2.71 ± 1.25 min | balance beam, 14 days after medication ([6]; 10 mg/kg iv qd 7 d (high dose)): 4.29 ± 1.60 min | Improvement rate % of cerebral infarction range ([7]; 5 mg/kg iv qd 7 d): 46.5% | Infarct size (%) ([7]; 5 mg/kg iv qd 7 d): 13.13 ± 4.12 % | Improvement rate % of cerebral infarction range ([7]; 10 mg/kg iv qd 7 d): 43.4% | Infarct size (%) ([7]; 10 mg/kg iv qd 7 d): 13.90 ± 4.70 % | Relevant substances before sterilization [8]: None | Conclusion (sterilization stability) [8]: No changes, stable | Relevant substances after sterilization [8]: no impurities were found and no impurities are produced and None | 2 mg/ml pH value [4]: 5.47 | 10 mg/ml pH value [4]: 5.38 | Forelimb left (%), 7 days after medication ([9]; 5 mg/kg iv qd 7 d): 18.57 ± 18.64% | Forelimb left (%), 14 days after medication ([9]; 5 mg/kg iv qd 7 d): 37.14 ± 30.39 % | Forelimb right (%), 7 days after medication ([9]; 5 mg/kg iv qd 7 d): 100 ± 0% | Forelimb right (%), 14 days after medication ([9]; 5 mg/kg iv qd 7 d): 100 ± 0% | Forelimb left (%), 7 days after medication ([9]; 10 mg/kg iv qd 7 d): 14.29 ± 18.13% | Forelimb left (%), 14 days after medication ([9]; 10 mg/kg iv qd 7 d): 38.57 ± 28.54 % | Forelimb right (%), 7 days after medication ([9]; 10 mg/kg iv qd 7 d): 100 ± 0% | Forelimb right (%), 14 days after medication ([9]; 10 mg/kg iv qd 7 d): 100 ± 0%

CCCc1nn(C)c2c(=O)[nH]c(-c3cc(S(=O)(=O)N4C[C@@H](C)N[C@@H](C)C4)ccc3OCC)nc12.O=C(O)C(O)C(O)C(=O)O [Aildenafil L-tartrate, L-tartrate (1:1) of 1-[4-ethoxy-3-[5-(6,7-dihydro-1-methyl-7-oxy-3-n-propyl-1H-pyrazolo[4,3-d]pyrimidine)]benzenesulfonyl]-cis-3,5-dimethylpiperazine]
time to dissolve to be clear in water by hand shaking [5]: 15 s | solubility ([5]; thermodynamic from solid, room temperature, read-out: Saturated Solubility in water at room temperature): ~50 mg/mL | Relevant substances before sterilization [8]: None | Conclusion (sterilization stability) [8]: No changes, stable | Relevant substances after sterilization [8]: no impurities were found and None | Relevant substances after sterilization ([8]; listed as L-tartrate): no impurities are produced | 2 mg/ml pH value [4]: 3.59 | 10 mg/ml pH value [4]: 3.56

CCCc1nn(C)c2c(=O)[nH]c(-c3cc(S(=O)(=O)N4C[C@@H](C)N[C@@H](C)C4)ccc3OCC)nc12 [Aildenafil DL-tartrate]
2 mg/ml pH value [4]: 3.90 | 10 mg/ml pH value [4]: 3.57

CCCc1nn(C)c2c(=O)[nH]c(-c3cc(S(=O)(=O)N4C[C@@H](C)N[C@@H](C)C4)ccc3OCC)nc12 [Aildenafil citrate]
behavioral score, 3 days after medication ([10]; 3 days after medication): 6.9 ± 1.5 | behavioral score, 7 days after medication ([10]; 7 days after medication): 5.5 ± 1.1 | behavioral score, 14 days after medication ([10]; 14 days after medication): 4.3 ± 1.3 | behavioral score, Before medication ([10]; before medication): 9.7 ± 0.5 | Total cerebral infarction % ([11]; 14 days after administration, x ± s, n = 10): 17.6 ± 7.7 % | Improvement rate % of cerebral infarction range ([11]; 14 days, versus model control group): 29.6% | Relevant substances before sterilization [8]: None | Conclusion (sterilization stability) [8]: No changes, stable | Relevant substances after sterilization [8]: no impurities were found and None | 2 mg/ml pH value [4]: 4.11 | 10 mg/ml pH value [4]: Insoluble
